We go through 5 substances from article PMC3898733 (ACS nano, 2013).

The assay concerns Factor VII. Put plainly: In vivo Factor VII silencing. As to conditions: for knock down of coagulation Factor VII: as stated in the abstract, dose not printed there; for activity in decreasing Factor VII expression: nanoparticles decorated with scrambled peptide, three days post injection.

Take CWLCRALIKRIQAMIP [compound 5]: the “knock down of coagulation Factor VII” value was determined as 90%. For the same substance, the “reduction of Factor VII expression” value (peptide decorated nanoparticles with Factor VII siRNA, tail vein, 5 mg/kg siRNA, blood three days post-injection, n=5) is recorded as 50%.
With MLRIAIRAWLCIPQCK, the “activity in decreasing Factor VII expression” value (5 mg/kg siRNA) is listed as “did not exhibit any activity”.
For lactoferricin, the “knock down of coagulation Factor VII” value amounted to 90%.
On to KRCRGWRQKMCLW, for which, where the note is “5 mg/kg siRNA”, the “activity in decreasing Factor VII expression” value was “did not exhibit any activity”.
The same measure, in the same setting: for LRGYEGHRCGILALLDLACTKHANCLPCTQPS the value was “did not exhibit any activity”.
